The record followed here is patent US10858360B2, “Tricyclic gyrase inhibitors” (priority 2011, dated 2020).

Molecules are shown by their SMILES. Converted amounts (≈) assume the structure as drawn.

The subject of one assay is E. coli ATCC 25922. The experiment in a line: MIC, E. coli ATCC 25922. As to conditions: Alamar Blue read after overnight incubation at 35° C.; for MIC: Escherichia coli, ATCC25922, E. coli; for MIC Ec: E. coli. Format: cell-based.
A further assay has as its system S. aureus ATCC 13709. Briefly: MIC, S. aureus ATCC 13709 (Alamar Blue broth microdilution). It counts as cell-based. As to conditions: Alamar Blue read after overnight incubation at 35° C.; for MIC: Staphylococcus aureus, ATCC13709, S. aureus; for MIC Sa: S. aureus. For orientation: The colour change of resazurin is a common sign of viable cells or microbes.

For the compound `CNc1cccc2c1[nH]c1nc(Sc3cnc4ccc[n+]([O-])c4c3)nc(N3CC4CC3CN4)c12` (centres unmarked) [1.57], the minimal inhibitory concentration (MIC) in the assay on E. coli ATCC 25922 and in the assay with S. aureus ATCC 13709 was above 32 µg/mL each time.

Turning to `CNc1cc(F)cc2c1[nH]c1nc(Oc3cnc4ccoc4c3)nc(N3CC4C(N)C4C3)c12` (centres unmarked) [4.291], the MIC in the assay with E. coli ATCC 25922 and in the assay on S. aureus ATCC 13709 was at most 0.5 µg/mL throughout.

On to `CNc1ncnc2c1[nH]c1nc(Oc3cncc(F)c3)nc(N3CC(N)C4(CC4)C3)c12` (centres unmarked) [7.06], for which the MIC (as a rule, the smallest concentration in the dilution series that meets the test's criterion for growth inhibition) was found to be 64 µg/mL (≈ 152 µM) in the assay on E. coli ATCC 25922 and 8 µg/mL (≈ 19 µM) in the assay with S. aureus ATCC 13709.

As for `CNc1cc(F)cc2c1[nH]c1nc(Oc3cncc(-c4nnnn4C)c3)nc(N3CC4CC(N)C4C3)c12` (mixture of isomers) [4.171], in the assay on E. coli ATCC 25922, the “MIC Ec” value is 4 µg/mL. Further, the “MIC Sa” value with S. aureus ATCC 13709 was at most 0.5 µg/mL.

As to `CCc1ncc(Oc2nc(N3CC4C[C@@H](N)C4C3)c3c(n2)[nH]c2c(NC)cc(F)cc23)cn1` (some centres unmarked) [4.264], the MIC against E. coli ATCC 25922 and against S. aureus ATCC 13709 was at most 0.5 µg/mL each time.

As for `CNc1cc(F)cc2c1[nH]c1nc(Oc3cncc([S+](C)[O-])c3)nc(N3CC(N)C4(CC4)C3)c12` (centres unmarked) [4.352], in the assay with E. coli ATCC 25922, the “MIC Ec” value stood at 4 µg/mL (≈ 8.31 µM). For the same compound, the “MIC Sa” value with S. aureus ATCC 13709 is at most 0.5 µg/mL.

As for `CNc1cc(F)cc2c1[nH]c1nc(Oc3cnc(COC)nc3)nc(N3CC(N)C4(CC4)C3)c12` (centres unmarked) [4.343], the “MIC Ec” value in the assay on E. coli ATCC 25922 was at most 0.5 µg/mL. Moreover, in the assay with S. aureus ATCC 13709, the “MIC Sa” value is at most 0.5 µg/mL.

Consider `CNc1cc(F)cc2c1[nH]c1nc(Oc3cnc(C4CCC4)nc3)nc(N3CC4CC(N)C4C3)c12` (centres unmarked) [4.285], for which the minimum inhibitory concentration (MIC) in the assay on E. coli ATCC 25922 and in the assay with S. aureus ATCC 13709 was at most 0.5 µg/mL in each case.

`CNc1cc(F)cc2c1[nH]c1nc(Oc3cnc(N)nc3)nc(N3CC4CNC(C4)C3)c12` (centres unmarked) [4.175]: the MIC in the assay with E. coli ATCC 25922 is 8 µg/mL (≈ 18.4 µM); against S. aureus ATCC 13709 it was at most 0.5 µg/mL.

On to `CNc1cc(F)cc2c1[nH]c1nc(Oc3cnc(C)nc3)nc(N3CC4(CCCN4)C3)c12` [4.119], for which the “MIC Ec” value against E. coli ATCC 25922 was found to be 2 µg/mL (≈ 4.6 µM). The “MIC Sa” value in the assay on S. aureus ATCC 13709 was at most 0.5 µg/mL.

Consider `CNc1cc(F)cc2c1[nH]c1nc(Oc3cnc(CO)nc3)nc(N3CC4CC(N)C4C3)c12` (centres unmarked) [4.386], for which the minimum inhibitory concentration (MIC) against E. coli ATCC 25922 and against S. aureus ATCC 13709 was at most 0.5 µg/mL in each case.

Consider `CNc1cc(F)c(F)c2c1[nH]c1nc(Oc3cnc(C)nc3)nc(N3CC4(CC[C@H]4N)C3)c12` [5.01], for which the minimal inhibitory concentration (MIC) with E. coli ATCC 25922 and against S. aureus ATCC 13709 was at most 0.5 µg/mL throughout.

On to `CNc1cc(F)cc2c1[nH]c1nc(Oc3cnc(C)nc3)nc(N3CCC4(CCNC4)C3)c12` (centres unmarked) [4.126], for which the “MIC Ec” value in the assay with E. coli ATCC 25922 was 2 µg/mL (≈ 4.46 µM). Moreover, the “MIC Sa” value in the assay with S. aureus ATCC 13709 was at most 0.5 µg/mL.

On to `CNc1cc(F)cc2c1[nH]c1nc(Oc3cnc(C)nc3)nc(N3CC4CCCC(N)C4C3)c12` (centres unmarked) [4.086], for which the “MIC Ec” value against E. coli ATCC 25922 came out at 2 µg/mL (≈ 4.32 µM). The “MIC Sa” value in the assay on S. aureus ATCC 13709 was at most 0.5 µg/mL.

On to `CNc1cc(F)cc2c1[nH]c1nc(Oc3cncc(C#N)c3)nc(N3CC(N)C4(CC4)C3)c12` (centres unmarked) [4.051], for which the minimal inhibitory concentration (MIC) was 2 µg/mL (≈ 4.5 µM) in the assay with E. coli ATCC 25922 and at most 0.5 µg/mL in the assay on S. aureus ATCC 13709.

`CNc1cc(F)cc2c1[nH]c1nc(Oc3cncc([S+](C)[O-])c3)nc(N3CC4C(N)C4C3)c12` (centres unmarked) [4.351]: the “MIC Ec” value against E. coli ATCC 25922 turned out to be 2 µg/mL (≈ 4.28 µM). The “MIC Sa” value against S. aureus ATCC 13709 is at most 0.5 µg/mL.

On to `CNc1cc(F)cc2c1[nH]c1nc(Oc3cnc(C)nc3)nc(N3CC4CCNC4C3)c12` (centres unmarked) [4.094], for which, in the assay with E. coli ATCC 25922, the “MIC Ec” value was at most 0.5 µg/mL. Further, in the assay on S. aureus ATCC 13709, the “MIC Sa” value is at most 0.5 µg/mL.

As to `CNc1cccc2c1[nH]c1nc(Oc3ccc(C(=O)O)nc3)nc(N3CC4C(N)C4C3)c12` (centres unmarked) [3.22], the MIC with E. coli ATCC 25922 was 64 µg/mL (≈ 148 µM); against S. aureus ATCC 13709, 16 µg/mL (≈ 37.1 µM).

In the case of `CNc1cccc2c1[nH]c1nc(Oc3cnc(C)nc3)nc(N3CC4C(C3)C4NCCC#N)c12` (centres unmarked) [3.11], the values for the minimum inhibitory concentration (MIC) against E. coli ATCC 25922 and in the assay on S. aureus ATCC 13709 were 2 µg/mL (≈ 4.39 µM) and at most 0.5 µg/mL, respectively.

Turning to `CNc1cccc2c1[nH]c1nc(Sc3cnc4cccnc4c3)nc(N3CCC(CN)C3)c12` (centres unmarked) [1.48], the figures for the MIC in the assay with E. coli ATCC 25922 and against S. aureus ATCC 13709 were 2 µg/mL (≈ 4.38 µM) and at most 0.5 µg/mL, respectively.

With `CNc1cc(F)cc2c1[nH]c1nc(Oc3cnc(C(C)(C)O)nc3)nc(N3CC4(CC[C@H]4N)C3)c12` [4.413], the MIC against E. coli ATCC 25922 and against S. aureus ATCC 13709 was at most 0.5 µg/mL throughout.

As to `CNc1cc(F)cc2c1[nH]c1nc(Sc3cnc4ccc[n+]([O-])c4c3)nc(N3CCC4(CC4N)C3)c12` (centres unmarked) [1.65], the “MIC Ec” value in the assay on E. coli ATCC 25922 is at most 0.5 µg/mL. Moreover, in the assay on S. aureus ATCC 13709, the “MIC Sa” value is at most 0.5 µg/mL.
